Reference: PMC7181660, “A novel specific PERK activator reduces toxicity and extends survival in Huntington's disease models” (Scientific Reports, 2020)
Like-named read-outs stand apart in the source and are kept apart here.

Assays:
Assay in all cases: biochemical
Assay type in all cases: biochemical
[1] = target: panel of 391 kinases (Homo sapiens, UniProt O15075); details: DCAMKL1, MK-28 1 µM, ATP 1 µM
[2] = target: panel of 391 kinases (Homo sapiens, UniProt P06493); details: MK-28 1 µM, ATP 1 µM; for remaining activity at 1 µM: read-out: % Enzyme Activity (relative to DMSO controls)
[3] = target: panel of 391 kinases (Homo sapiens, UniProt P08922); details: ROS/ROS1, MK-28 1 µM, ATP 1 µM
[4] = target: panel of 391 kinases (Homo sapiens, UniProt P15735); details: PHKg2, MK-28 1 µM, ATP 1 µM
[5] = target: panel of 391 kinases (Homo sapiens, UniProt P29320); details: EPHA3, MK-28 1 µM, ATP 1 µM
[6] = target: panel of 391 kinases (Homo sapiens, UniProt P32298); details: GRK4, MK-28 1 µM, ATP 1 µM
[7] = target: panel of 391 kinases (Homo sapiens, UniProt P42684); details: ABL2/ARG, MK-28 1 µM, ATP 1 µM
[8] = target: panel of 391 kinases (Homo sapiens, UniProt P42685); details: FRK/PTK5, MK-28 1 µM, ATP 1 µM
[9] = target: panel of 391 kinases (Homo sapiens, UniProt P43250); details: GRK6, MK-28 1 µM, ATP 1 µM
[10] = target: panel of 391 kinases (Homo sapiens, UniProt P45984); details: JNK2, MK-28 1 µM, ATP 1 µM
[11] = target: panel of 391 kinases (Homo sapiens, UniProt P49841); details: GSK3b, MK-28 1 µM, ATP 1 µM
[12] = target: panel of 391 kinases (Homo sapiens, UniProt P51617); details: IRAK1, MK-28 1 µM, ATP 1 µM
[13] = target: panel of 391 kinases (Homo sapiens, UniProt Q00536); details: CDK16/cyclin Y (PCTAIRE), MK-28 1 µM, ATP 1 µM
[14] = target: panel of 391 kinases (Homo sapiens, UniProt Q02763); details: TIE2/TEK, MK-28 1 µM, ATP 1 µM
[15] = target: panel of 391 kinases (Homo sapiens, UniProt Q06418); details: TYRO3/SKY, MK-28 1 µM, ATP 1 µM
[16] = target: panel of 391 kinases (Homo sapiens, UniProt Q12852); details: DLK/MAP3K12, MK-28 1 µM, ATP 1 µM
[17] = target: panel of 391 kinases (Homo sapiens, UniProt Q15119); details: kinase PDK2/PDHK2, compound at 1 µM, single dose in duplicates, 1 µM ATP
[18] = target: panel of 391 kinases (Homo sapiens, UniProt Q15418); details: RSK1, MK-28 1 µM, ATP 1 µM
[19] = target: panel of 391 kinases (Homo sapiens, UniProt Q6P3R8); details: NEK5, MK-28 1 µM, ATP 1 µM
[20] = target: panel of 391 kinases (Homo sapiens, UniProt Q6VAB6); details: KSR2, MK-28 1 µM, ATP 1 µM
[21] = target: panel of 391 kinases (Homo sapiens, UniProt Q8TD08); details: ERK7/MAPK15, MK-28 1 µM, ATP 1 µM
[22] = target: panel of 391 kinases (Homo sapiens, UniProt Q8TD19); details: NEK9, MK-28 1 µM, ATP 1 µM
[23] = target: panel of 391 kinases (Homo sapiens, UniProt Q9HBH9); details: MNK2, MK-28 1 µM, ATP 1 µM
[24] = target: panel of 391 kinases (Homo sapiens, UniProt Q9NWZ3); details: IRAK4, MK-28 1 µM, ATP 1 µM
[25] = target: panel of 391 kinases (Homo sapiens, UniProt Q9NYL2); details: ZAK/MLTK, MK-28 1 µM, ATP 1 µM
[26] = target: panel of 391 kinases (Homo sapiens, UniProt Q9P289); details: MST4, MK-28 1 µM, ATP 1 µM
[27] = read-out: % Enzyme Activity (relative to DMSO controls)

Structure (SMILES): CN(/N=C\c1ccc(O)c(O)c1)c1nc(-c2ccccc2)cc(-c2ccccc2)n1 [MK-28]
- % Enzyme Activity (relative to DMSO controls) [1]: 110.18%
- remaining activity at 1 µM [1, 27]: 111%
- % Enzyme Activity (relative to DMSO controls) ([2]; CDK1/cyclin A): 104.81%
- remaining activity at 1 µM ([2]; CDK1/cyclin A): 105%
- % Enzyme Activity (relative to DMSO controls) ([2]; CDK1/cyclin B): 94.54%
- remaining activity at 1 µM ([2]; CDK1/cyclin B): 95%
- % Enzyme Activity (relative to DMSO controls) ([2]; CDK1/cyclin E): 97.74%
- remaining activity at 1 µM ([2]; CDK1/cyclin E): 97.8%
- % Enzyme Activity (relative to DMSO controls) [3]: 99.57%
- remaining activity at 1 µM [3, 27]: 100%
- % Enzyme Activity (relative to DMSO controls) [4]: 95.93%
- remaining activity at 1 µM [4, 27]: 96.2%
- % Enzyme Activity (relative to DMSO controls) [5]: 93.74%
- remaining activity at 1 µM [5, 27]: 106%
- % Enzyme Activity (relative to DMSO controls) [6]: 97.72%
- remaining activity at 1 µM [6, 27]: 99.2%
- % Enzyme Activity (relative to DMSO controls) [7]: 99.46%
- remaining activity at 1 µM [7, 27]: 100%
- % Enzyme Activity (relative to DMSO controls) [8]: 100.16%
- remaining activity at 1 µM [8, 27]: 101%
- % Enzyme Activity (relative to DMSO controls) [9]: 102.17%
- remaining activity at 1 µM [9, 27]: 104%
- % Enzyme Activity (relative to DMSO controls) [10]: 90.48%
- remaining activity at 1 µM [10, 27]: 90.8%
- % Enzyme Activity (relative to DMSO controls) [11]: 63.98%
- remaining activity at 1 µM [11, 27]: 70.3%
- % Enzyme Activity (relative to DMSO controls) [12]: 84.75%
- remaining activity at 1 µM [12, 27]: 88.3%
- % Enzyme Activity (relative to DMSO controls) [13]: 113.27%
- remaining activity at 1 µM [13, 27]: 119%
- % Enzyme Activity (relative to DMSO controls) [14]: 98.55%
- remaining activity at 1 µM [14, 27]: 99%
- % Enzyme Activity (relative to DMSO controls) [15]: 99.89%
- remaining activity at 1 µM [15, 27]: 100%
- % Enzyme Activity (relative to DMSO controls) [16]: 122.20%
- remaining activity at 1 µM [16, 27]: 124%
- % Enzyme Activity (relative to DMSO controls) [17]: 99.55%
- remaining activity at 1 µM [17, 27]: 103%
- % Enzyme Activity (relative to DMSO controls) [18]: 96.73%
- remaining activity at 1 µM [18, 27]: 96.8%
- % Enzyme Activity (relative to DMSO controls) [19]: 79.32%
- remaining activity at 1 µM [19, 27]: 81.8%
- % Enzyme Activity (relative to DMSO controls) [20]: 93.44%
- remaining activity at 1 µM [20, 27]: 96%
- % Enzyme Activity (relative to DMSO controls) [21]: 103.38%
- remaining activity at 1 µM [21, 27]: 105%
- % Enzyme Activity (relative to DMSO controls) [22]: 96.03%
- remaining activity at 1 µM [22, 27]: 101%
- % Enzyme Activity (relative to DMSO controls) [23]: 105.57%
- remaining activity at 1 µM [23, 27]: 114%
- % Enzyme Activity (relative to DMSO controls) [24]: 124.00%
- remaining activity at 1 µM [24, 27]: 129%
- % Enzyme Activity (relative to DMSO controls) [25]: 104.97%
- remaining activity at 1 µM [25, 27]: 105%
- % Enzyme Activity (relative to DMSO controls) [26]: 101.40%
- remaining activity at 1 µM [26, 27]: 102%
